Measurements: ChEMBL document CHEMBL1126580, “Enantiospecific syntheses of alpha-(fluoromethyl)tryptophan analogues: interactions with tryptophan hydroxylase and aromatic L-amino acid decarboxylase” (J Med Chem, 1993)

Molecular target: T1, Aromatic-L-amino-acid decarboxylase (Mus musculus) (UniProt O88533)
T1 sequence (whole entry): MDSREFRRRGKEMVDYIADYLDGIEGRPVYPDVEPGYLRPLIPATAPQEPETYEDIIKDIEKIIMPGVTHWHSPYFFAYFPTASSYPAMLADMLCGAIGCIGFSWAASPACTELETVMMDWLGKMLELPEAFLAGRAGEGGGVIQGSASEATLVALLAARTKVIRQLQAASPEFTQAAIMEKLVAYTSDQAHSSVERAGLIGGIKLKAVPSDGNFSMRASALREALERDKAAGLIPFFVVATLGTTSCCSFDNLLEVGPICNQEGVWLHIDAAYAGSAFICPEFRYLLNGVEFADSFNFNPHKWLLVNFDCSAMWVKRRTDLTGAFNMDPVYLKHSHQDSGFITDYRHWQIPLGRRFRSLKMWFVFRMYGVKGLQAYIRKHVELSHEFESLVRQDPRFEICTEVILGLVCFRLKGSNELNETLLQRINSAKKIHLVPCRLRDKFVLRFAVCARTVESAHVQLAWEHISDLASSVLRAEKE
Assay: First-order inactivation rate constant (k2) was evaluated as an inhibitor of murine liver aromatic L-amino acid decarboxylase (AADC)

N[C@@](CF)(Cc1c[nH]c2ccc(O)cc12)C(=O)O
k2: 2.26 min⁻¹
